Assay [1] deals with T1, human GRIN1 (variant NR1-3) and GRIN2D expressed in HEK293 cells (Homo sapiens, UniProt O15399).
T1 construct: GenScript (GRIN2D synthesis) SC115601; host or cells: HEK293
As to the kind of experiment: GluN2D PAM CIQ fluorescence assay (Fluo-8 calcium, FDSS 6000). The assay is classed as cell-based. Conditions: relative to CIQ (100 uM) = 100%, read-out: NR2D Percent CIQ Avg Max Measured Effect. The method, then: GluN2D PAM CIO Flourescence AssayHEK293 cells were transfected to express human GRIN1 (variant NR1-3, Origene, SKU #: SC115601, Rockville, Md.) and GRIN2D (NCBI locus NM_000836, sequence optimized and synthesized by GenScript) and grown as an adherent monolayer at 37° C., 5% CO2 in DMEM/Ham's F12+10% FBS (Hyclone SH3007.03T in the presence of 2.5 mM ARL-15896 (AdooQ Bioscience, Irvine Calif.). To prepare the cells for an experiment, they were rinsed with Dulbecco's PBS (Ca^2+ and Mg^2+ free) and detached from the flask with TrypLE™ Express (Life Technologies, Carlsbad, Calif.) using the manufacturer's recommended methods. Cells collected from the flask were washed twice in Ca^2+/Mg^2+-free Hanks Balanced Salt Solution+20 mM HEPES (HBSS), and counted and assessed for viability with trypan blue. Washed cells were then dye-loaded by resuspending in Fluo-8/AM calcium sensitive dye plus Component B (AAT Bioquest, Sunnyvale, Calif.) diluted in HBSS. To allow cells to take up fluo-8 dye, they were incubated in the dark for 15 min at 37° C., followed by 30 min at 22-25° C. After dye-loading, cells were washed and resuspended in HBSS and plated in 384-well plates (Falcon 353962; Corning, Big Flats, N.Y.) at 20,000-30,000 cells/well in a final volume of 25 μl/well. The cell plates were centrifuged at 200×g, for 2 minutes at 21° C., to create a monolayer of cells at the bottom of the wells.
To initiate an assay, 10 μl of test compound or buffer was added to each well of the cell plate and pre-incubated for 10 minutes in the dark. After 10 minutes, the cell plate was placed in a FDSS 6000 plate reader (Hamamatsu Photonics, Middlesex, N.J.); baseline fluorescence readings were collected for 20 seconds. Next, 25 μl of agonist solution (3 μM glutamate, 3 μM glycine, and 1 mM Ca^2+ in HBSS) was added and the change in fluorescence was recorded for 3 minutes.
Results were calculated by comparing the effects of test compounds to that of the literature standard GluN2C/D PAM CIQ (100 uM). The increase in fluorescence in the presence of CIQ minus the increase induced by glutamate+glycine alone was set to 100%. Responses induced by compounds that were larger than gain the presence of the standard concentration of CIQ were greater than 100% and lesser responses were less than 100%.

The target of assay [2] is T2, human GRIN1 (transcript variant NR1-3) and GRIN2D expressed in Xenopus oocytes (Homo sapiens, UniProt O15399).
T2 construct: GenScript (GRIN2D synthesis) SC115601; host or cells: Xenopus oocytes injected with cRNA (1 GluN1 : 2 GluN2)
T2 sequence (O15399 28-1336, other chains not shown): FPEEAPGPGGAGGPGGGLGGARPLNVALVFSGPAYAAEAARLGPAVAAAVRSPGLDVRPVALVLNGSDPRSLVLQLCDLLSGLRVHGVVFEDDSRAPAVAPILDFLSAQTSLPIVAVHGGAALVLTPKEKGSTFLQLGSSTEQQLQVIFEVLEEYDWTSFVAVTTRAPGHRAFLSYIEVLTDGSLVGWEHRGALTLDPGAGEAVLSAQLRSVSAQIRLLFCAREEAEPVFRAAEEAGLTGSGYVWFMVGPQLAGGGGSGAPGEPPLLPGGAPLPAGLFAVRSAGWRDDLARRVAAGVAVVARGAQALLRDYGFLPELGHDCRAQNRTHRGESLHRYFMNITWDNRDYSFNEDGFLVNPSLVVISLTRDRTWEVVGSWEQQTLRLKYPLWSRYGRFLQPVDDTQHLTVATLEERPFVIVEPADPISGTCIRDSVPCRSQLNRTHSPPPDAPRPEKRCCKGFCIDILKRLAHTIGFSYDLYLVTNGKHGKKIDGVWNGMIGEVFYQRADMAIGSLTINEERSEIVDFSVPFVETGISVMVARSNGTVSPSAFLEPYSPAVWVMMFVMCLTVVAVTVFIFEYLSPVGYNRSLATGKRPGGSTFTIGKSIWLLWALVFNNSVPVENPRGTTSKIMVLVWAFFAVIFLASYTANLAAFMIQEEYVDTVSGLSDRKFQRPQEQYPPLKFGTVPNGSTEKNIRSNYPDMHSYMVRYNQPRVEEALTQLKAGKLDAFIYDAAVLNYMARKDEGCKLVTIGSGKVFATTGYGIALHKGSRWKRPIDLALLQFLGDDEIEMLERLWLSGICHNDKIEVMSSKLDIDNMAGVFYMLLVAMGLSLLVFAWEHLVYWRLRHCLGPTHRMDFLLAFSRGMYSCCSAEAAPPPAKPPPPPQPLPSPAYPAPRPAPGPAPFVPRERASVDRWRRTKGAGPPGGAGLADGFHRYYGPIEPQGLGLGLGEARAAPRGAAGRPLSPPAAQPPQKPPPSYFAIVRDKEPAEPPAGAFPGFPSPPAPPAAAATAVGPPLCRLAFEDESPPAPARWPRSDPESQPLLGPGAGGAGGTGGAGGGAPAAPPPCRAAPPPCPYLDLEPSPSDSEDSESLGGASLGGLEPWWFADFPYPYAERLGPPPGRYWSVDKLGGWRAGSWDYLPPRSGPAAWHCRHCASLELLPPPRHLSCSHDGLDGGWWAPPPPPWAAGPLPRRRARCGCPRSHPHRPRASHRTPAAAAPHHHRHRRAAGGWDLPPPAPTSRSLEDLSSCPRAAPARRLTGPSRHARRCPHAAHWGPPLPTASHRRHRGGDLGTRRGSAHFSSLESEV
As to the kind of experiment: NR2D oocyte potentiation assay (two-electrode voltage clamp). It is filed as cell-based. The note with it: 10 uM test compound; glutamate and glycine 10 μM each; holding potential −40 mV. Summed up:
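Xenopus oocytes were defolliculated with collagenase, then injected with 50 nL of cRNA encoding human GluN1 (NR1-3 variant) and GluN2D mixed 1:2 and kept 72 h at 16° C. Two-electrode voltage clamp at −40 mV recorded currents; after 10 μM glutamate plus 10 μM glycine reached plateau, test compound was added until a new plateau formed.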
(In general: In two-electrode clamp one electrode senses voltage and the other passes current.)

T1 sequence (O15399 28-1336, other chains not shown): as above

Take `CC(C)(C)c1ccc(-c2nc3n(c(=O)c2C#N)CCS3)cc1` [Example 205, 7-(4-tert-butylphenyl)-5-oxo-2H,3H,5H-[1,3]thiazolo[3,2-a]pyrimidine-6-carbonitrile]: in assay [1], the Emax lay in the range of 100 to 200%. Besides, the activation at 10 µM in assay [2] lay in the range of 100 to 500%.

Turning to `CC(C)(C)c1ccc(-c2nc3n(c(=O)c2C#N)CC(O)CS3)cc1` (centres unmarked) [Example 200, 8-(4-tert-butylphenyl)-3,4-dihydro-3-hydroxy-6-oxo-2H,6H-pyrimido[2,1-b][1,3]thiazine-7-carbonitrile], the Emax in assay [1] was 50 to 100%. The activation at 10 µM in assay [2] is below 10%.

Take `N#Cc1c(-c2ccc(C3CC3)nc2)nc2n(c1=O)CCCS2` [Example 181, 8-(6-cyclopropylpyridin-3-yl)-6-oxo-2H,3H,4H,6H-pyrimido[2,1-b][1,3]thiazine-7-carbonitrile]: the Emax in assay [1] fell in the range of 100 to 200%. In addition, the activation at 10 µM in assay [2] lay within 10 to 100%.

As to `CC1CSc2nc(-c3ccc(C(C)(C)C)nc3)c(C#N)c(=N)n2C1` (centres unmarked) [Example 63, 8-(6-(tert-butyl)pyridin-3-yl)-6-imino-3-methyl-3,4-dihydro-2H,6H-pyrimido[2,1-b][1,3]thiazine-7-carbonitrile], the Emax in assay [1] is above 200%. Besides, in assay [2], the activation at 10 µM is above 1000%.

For `COc1ccc(-c2nc3n(c(=O)c2C#N)CCS3)c(OC)c1` [Example 208, 7-(2,4-dimethoxyphenyl)-5-oxo-2H,3H,5H-[1,3]thiazolo[3,2-a]pyrimidine-6-carbonitrile], the Emax in assay [1] is 50 to 100%. Besides, the “NR2D Oocyte % Potentiation @ 10 uM” value in assay [2] is “Inhibitor”.

`CC1CSc2nc(-c3ccc(C(C)(C)C)nc3)c(C#N)c(=O)n2C1` (centres unmarked) [Example 175, 8-(6-tert-butylpyridin-3-yl)-3-methyl-6-oxo-2H,3H,4H,6H-pyrimido[2,1-b][1,3]thiazine-7-carbonitrile]: the Emax in assay [1] lay within 100 to 200%. Besides, in assay [2], the activation at 10 µM is above 1000%.

In the case of `N#Cc1c(-c2ccc(C(F)(F)F)nc2)nc2n(c1=O)CCCS2` [Example 48, 6-oxo-8-(6-(trifluoromethyl)pyridin-3-yl)-3,4-dihydro-2H,6H-pyrimido[2,1-b][1,3]thiazine-7-carbonitrile], in assay [1], the Emax was 10 to 50%. Besides, the activation at 10 µM in assay [2] is below 10%.

With `C/N=c1/c(C#N)c(-c2ccc(C(C)(C)C)cc2)nc2n1CCCS2` [Example 37, (Z)-8-(4-(tert-butyl)phenyl)-6-(methylimino)-3,4-dihydro-2H,6H-pyrimido[2,1-b][1,3]thiazine-7-carbonitrile], in assay [1], the Emax is above 200%. The activation at 10 µM in assay [2] lay in the range of 500 to 1000%.

As for `CC1CCSc2nc(-c3ccc(C(C)(C)C)cc3)c(C#N)c(=O)n21` (centres unmarked) [Example 201, 8-(4-tert-butylphenyl)-3,4-dihydro-4-methyl-6-oxo-2H,6H-pyrimido[2,1-b][1,3]thiazine-7-carbonitrile], in assay [1], the Emax was in the range of 100 to 200%. In assay [2], the activation at 10 µM was in the range of 10 to 100%.

For `N#Cc1c(-c2ccc(C3CC3)cc2)nc2n(c1=O)CCCS2` [Example 189, 8-(4-cyclopropylphenyl)-6-oxo-2H,3H,4H,6H-pyrimido[2,1-b][1,3]thiazine-7-carbonitrile], the Emax in assay [1] is 10 to 50%. Also, the activation at 10 µM in assay [2] was 10 to 100%.

As for `CC(C)(C)c1ccc(-c2nc3n(c(=O)c2C#N)CCCS3)nc1` [Example 183, 8-(5-tert-butylpyridin-2-yl)-6-oxo-2H,3H,4H,6H-pyrimido[2,1-b][1,3]thiazine-7-carbonitrile], the Emax in assay [1] fell in the range of 100 to 200%. Also, the activation at 10 µM in assay [2] lay in the range of 10 to 100%.

On to `C[C@@H]1CSc2nc(-c3ccc(C(C)(C)C)nc3)c(C#N)c(=O)n2C1` [Example 45, (S)-8-(6-(tert-butyl)pyridin-3-yl)-3-methyl-6-oxo-3,4-dihydro-2H,6H-pyrimido[2,1-b][1,3]thiazine-7-carbonitrile], for which, in assay [1], the Emax was above 200%. Moreover, the activation at 10 µM in assay [2] is above 1000%.

As for `CC(C)(C)c1ncc(-c2nc3n(c(=O)c2C#N)CCCS3)cn1` [Example 176, 8-(2-tert-butylpyrimidin-5-yl)-6-oxo-2H,3H,4H,6H-pyrimido[2,1-b][1,3]thiazine-7-carbonitrile], the Emax in assay [1] lay within 100 to 200%. The activation at 10 µM in assay [2] lay in the range of 500 to 1000%.

Turning to `CC(C)(C)c1ccc(-c2nc3n(/c(=N\C(=O)C(F)(F)F)c2C#N)CCCS3)cc1` [Example 43, (Z)—N-(8-(4-(tert-butyl)phenyl)-7-cyano-3,4-dihydro-2H,6H-pyrimido[2,1-b][1,3]thiazin-6-ylidene)-2,2,2-trifluoroacetamide], the Emax in assay [1] is 10 to 50%. Besides, the activation at 10 µM in assay [2] was in the range of 100 to 500%.

`N#Cc1c(-c2cnc(C3CC3)nc2)nc2n(c1=O)CCCS2` [Example 178, 8-(2-cyclopropylpyrimidin-5-yl)-6-oxo-2H,3H,4H,6H-pyrimido[2,1-b][1,3]thiazine-7-carbonitrile]: the Emax in assay [1] is 100 to 200%. Moreover, the activation at 10 µM in assay [2] was 10 to 100%.

As for `CC1CSc2nc(-c3ccc(C(C)(C)C)cc3)c(C#N)c(=O)n2C1` (centres unmarked) [Example 199, 8-(4-tert-butylphenyl)-3,4-dihydro-3-methyl-6-oxo-2H,6H-pyrimido[2,1-b][1,3]thiazine-7-carbonitrile], in assay [1], the Emax lay within 100 to 200%. Moreover, in assay [2], the activation at 10 µM is above 1000%.

Turning to `C[C@@H]1CSc2nc(-c3ccc(C(C)(C)C)nc3)c(C#N)c(=N)n2C1` [Example 65, (S)-8-(6-(tert-butyl)pyridin-3-yl)-6-imino-3-methyl-3,4-dihydro-2H,6H-pyrimido[2,1-b][1,3]thiazine-7-carbonitrile], the Emax in assay [1] was above 200%. The activation at 10 µM in assay [2] was above 1000%.

On to `C[C@H]1CSc2nc(-c3ccc(C(C)(C)C)nc3)c(C#N)c(=N)n2C1` [Example 64, (R)-8-(6-(tert-butyl)pyridin-3-yl)-6-imino-3-methyl-3,4-dihydro-2H,6H-pyrimido[2,1-b][1,3]thiazine-7-carbonitrile], for which, in assay [1], the Emax was 100 to 200%. In addition, in assay [2], the activation at 10 µM lay in the range of 100 to 500%.

Turning to `CC(C)(C)c1cc(-c2nc3n(c(=O)c2C#N)CCCS3)ccn1` [Example 179, 8-(2-tert-butylpyridin-4-yl)-6-oxo-2H,3H,4H,6H-pyrimido[2,1-b][1,3]thiazine-7-carbonitrile], the Emax in assay [1] is 100 to 200%. In assay [2], the activation at 10 µM lay within 10 to 100%.

These data come from patent publication US11807650B2, “NMDA receptor modulators and uses thereof” (Novartis AG, priority 2016, dated 2023).
